Test results taken from patent publication EP1007514B1, “HETEROCYCLIC KETONES AS NPY Y5 ANTAGONISTS” (BAYER CORPORATION, priority 1997, dated 1999).

What was measured:
human NPY Y2 = biological target: T1, human NPY Y2 (Homo sapiens, UniProt P49146); test: NPY Y2 receptor membrane binding, [125I]PYY; details: membrane protein; 25 pM [125I]PYY; test compounds at 5 µM final concentration; read-out: IC50 (µM) NPY receptor indicated hY2
T1 sequence (P49146 1-381): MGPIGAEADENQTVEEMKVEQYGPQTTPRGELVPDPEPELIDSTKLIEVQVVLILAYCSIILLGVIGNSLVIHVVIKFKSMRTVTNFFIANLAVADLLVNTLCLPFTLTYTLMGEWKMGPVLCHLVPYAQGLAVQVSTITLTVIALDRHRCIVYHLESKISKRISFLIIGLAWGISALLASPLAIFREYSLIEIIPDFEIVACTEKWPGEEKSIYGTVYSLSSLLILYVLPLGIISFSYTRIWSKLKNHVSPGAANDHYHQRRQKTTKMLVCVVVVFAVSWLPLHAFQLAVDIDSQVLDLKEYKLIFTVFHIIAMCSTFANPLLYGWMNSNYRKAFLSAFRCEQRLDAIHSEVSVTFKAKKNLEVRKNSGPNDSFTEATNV
Procedure: Assays to determine binding affinity for human NPY Y2 and Y4/PP1 receptor subtypes are performed on GF/C Millipore 96-well plates pretreated with 0.02% polyethylenimine. […] Samples consist of membrane protein, 25 pM [^125I]PYY and test compounds at 5 µM final concentration. Nonspecific binding is defined by 1 µM NPY. The binding buffer for human Y4/PP1 binding consists of 137 mM NaCl, 5.4 mM KCl, 0.44 mM KH2PO4, 1.26 mM CaCl2, 0.81 mM MgSO4, 20 mM HEPES, 1 mM dithiothreitol, 0.1% bacitracin, 100 mg/l streptomycin sulfate, 1 mg/l aprotinin, 10 mg/ml soybean trypsin inhibitor and 0.3% BSA, pH 7.4. Samples consist of membrane protein, 50 pM human [^125I] human PP (hPP:NEN DuPont, Boston MA) and test compounds diluted to a final concentration of 5 µM. One µM hPP is used to define nonspecific binding. After a 2 hour incubation at room temperature with constant mixing, the samples are aspirated on a vacuum manifold, and rinsed with ice-cold binding buffer. The amount of radioactivity in each well is quantitated with either gamma counting or liquid scintillation.

[1] = biological target: T2, rat NPY Y5 receptor subtype (Rattus norvegicus, UniProt Q63634); test: NPY Y5 receptor membrane binding, [125I]PYY (rat); details: membrane protein; 75-100 pM [125I]PYY; 50% inhibition of specific binding; read-out: IC50 (µM) NPY receptor indicated rY5
T2 sequence (Q63634 1-445): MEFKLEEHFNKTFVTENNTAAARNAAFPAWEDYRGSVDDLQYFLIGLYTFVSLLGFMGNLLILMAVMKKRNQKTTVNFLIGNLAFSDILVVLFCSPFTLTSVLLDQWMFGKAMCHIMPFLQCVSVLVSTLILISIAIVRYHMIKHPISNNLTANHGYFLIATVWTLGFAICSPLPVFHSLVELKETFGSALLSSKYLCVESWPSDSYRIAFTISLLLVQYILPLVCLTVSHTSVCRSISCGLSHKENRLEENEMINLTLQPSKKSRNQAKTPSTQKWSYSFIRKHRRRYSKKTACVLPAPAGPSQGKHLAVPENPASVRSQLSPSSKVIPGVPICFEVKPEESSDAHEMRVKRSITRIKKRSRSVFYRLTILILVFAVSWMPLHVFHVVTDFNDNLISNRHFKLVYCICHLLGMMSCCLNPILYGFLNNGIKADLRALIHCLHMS
Procedure: Assays to determine human and rat NPY Y5 receptor subtype binding affinity are performed on GF/C Millipore 96-well plates pretreated with 0.02% polyethylenimine. The binding buffer is 25 mM Tris, 120 mM NaCl, 5 mM KCl, 1.2 mM KH2PO4, 2.5 mM CaCl2, 1.2 mM MgSO4, 0.1% BSA and 0.5 mg/ml bacitracin, pH 7.4. Samples consist of membrane protein, 75-100 pM [^125I] PYY (porcine, NEN-DuPont) and test compounds diluted in binding buffer. Nonspecific binding is defined by 1 µM PYY. After a 2 hour incubation at room temperature with constant mixing, the samples are aspirated on a vacuum manifold and rinsed with ice-cold binding buffer. The amount of radioactivity in each well is quantitated with either gamma counting or liquid scintillation. IC50 values, which correspond to 50% inhibition of specific binding, are determined with non-linear regression analysis.

rat NPY Y5 receptor = biological target: T3, rat NPY Y5 receptor (Rattus norvegicus, UniProt Q63634); test: In vitro functional assay, forskolin-stimulated cAMP in cells stably expressing the receptor; assay type: cell-based; details: percentage of forskolin-stimulated adenylate cyclase; 1 µM forskolin; test compound 10 µM; 80 - 120% indicates no significant agonistic effect
T3 construct: expressed in transfected cells
T3 sequence (Q63634 1-445): T2 sequence (Q63634 1-445)
Procedure: An in vitro functional assay to determine rat NPY Y5 receptor subtype binding affinity is performed by resuspending cells stably expressing the rat NPY Y5 receptor in serum-free DMEM containing 10 mM HEPES (pH 7.4) and 1 mM isobutylmethylxanthine (IBMX). One µM forskolin and test compounds at a final concentration of 10 µM are then added to the cells. After a 20 minute incubation of the samples at 37°C, the assay is stopped by placing the samples in boiling water for 3 minutes. The cAMP produced in each sample is quantitated with a radioimmunoassay kit (NEN DuPont). Data are expressed as a percentage of forskolin-stimulated adenylate cyclase. Data between 80 - 120% indicates no significant agonistic effect.

| IC50 (human NPY Y2) [µM] | IC50 [1] [µM] | % forskolin at 10 µM (rat NPY Y5 receptor) [%] | SMILES |
| --- | --- | --- | --- |
| 8.3 | 0.0526 | 122 | Cc1ccc(S(=O)(=O)CC(C(=O)c2nc3cc(C)c(C)cc3[nH]2)c2ccccc2)cc1 (stereo not shown) [Compound 7, (5,6-Dimethyl-1H-benzoimidazol-2-yl)-2-phenyl-3-(toluene-4-sulfonyl)-propan-1-one] |
| > 5 | 0.0067 | 106 | COc1ccc(S(=O)(=O)CC(C(=O)c2nc3ccccc3[nH]2)c2ccccc2)cc1 (stereo not shown) [Compound 10, 1-(1H-Benzoimidazol-2-yl)-3-(4-methoxy-benzenesulfonyl)-2-phenyl-propan-1-one] |
| > 5 | – | 99 | COc1ccc2[nH]c(C(=O)C(CS(=O)(=O)c3ccc(C)cc3)c3ccccc3)nc2c1 (stereo not shown) [Compound 14, 1-(5-Methoxy-1H-benzoimidazol-2-yl)-2-phenyl-3-(toluene-4-sulfonyl)-propan-1-one] |

Second part, the compound before the results:

| SMILES | IC50 (human NPY Y2) [µM] | IC50 [1] [µM] | % forskolin at 10 µM (rat NPY Y5 receptor) [%] |
| --- | --- | --- | --- |
| Cc1ccc(S(=O)(=O)CC(C(=O)c2nc3ccccc3s2)c2ccccc2)cc1 (stereo not shown) [Compound 6, 1-Benzothizol-2-yl-2-phenyl-3-(toluene-4-sulfonyl)-propan-1-one] | > 5 | 10 | 89 |
| Cc1ccc(SCC(C(=O)c2ncc[nH]2)c2ccccc2)cc1 (stereo not shown) [Compound 2, (1H-Imidazol-2-yl)-2-phenyl-3-p-tolylsulfanyl-propan-1-one] | > 5 | 0.46 | – |
| O=C(c1nc2ccccc2[nH]1)C(CS(=O)(=O)c1ccccc1)c1ccccc1 (stereo not shown) [Compound 8, 3-Benzenesulfonyl-1-(1H-benzoimidazol-2-yl)-2-phenyl-propan-1-one] | > 5 | 0.011 | 105 |
